Here are results for 26 compounds from patent publication US20130065897A1, “COMPOUNDS, PREPARATION AND USES THEREOF” (PETER MACCALLUM CANCER INSTITUTE, priority 2009, published 2013).

pIC50: −log10 of the molar value. Like-named read-outs stand apart in the source and are kept apart here.

Format in all cases: cell-based
The target in one series is recombinant perforin (UniProt P10820). The protocol:
Inhibition of Perforin-Mediated Lysis of Jurkat Cells
The ability of the compounds to inhibit the lysis of nucleated (Jurkat T lymphoma) cells in the presence of 0.1% BSA, as measured by release of ^51Cr was measured. Jurkat target cells were labelled by incubation in medium with 100 μCi ^51Cr for one hour. The cells were then washed three times to remove unincorporated isotope and re-suspended at 1×10^5 cells per mL in RPMI buffer supplemented with 0.1% BSA. […] The supernatant was collected and assessed for its radioactive content on a gamma counter (Wallac Wizard 1470 automatic gamma counter). Each data point was performed in triplicate and an IC50 was calculated from the range of concentrations described to above.

The subject of series [1] is KHYG-1 NK cell-mediated lysis of K562 cells. The experiment in a line: Inhibition of KHYG-1 NK cell-mediated lysis of K562 cells (51Cr release). The following applies: K562 target cells, Effector:Target 2:1, 4 hours 37° C. The protocol:
Inhibition of KHYG-1 NK Cell-Mediated lysis of K562 Cells
KHYG-1 cells were washed and resuspended in RPMI+0.1% BSA at 4×10^5 cells/ml and 50 μl of KHYG-1 cells were dispensed to each well of a 96-well V-bottom, plate. Test compounds were added to KHYG-1 cells at various concentrations up to 20 μM and incubated at RT for 20 minutes. 1×10^6 K562 target cells were labelled with 75 μCi ^51Cr in 200 μl RPMI for 90 mins at 37° C., cells were washed as described above and resuspended in 5 ml RPMI+0.1% BSA. 50 μl of ^51Cr labelled K562 leukemia target cells were added to each well of the KHYG-1 plate (Effector:Target 2:1) and incubated at 37° C. for 4 hours. ^51Cr release was assayed using a Skatron Harvesting Press and radioactivity estimated on a Wallac Wizard 1470 Automatic Gamma counter (Turku, Finland). The percentage of specific cytotoxicity was calculated by the formula: […]
and expressed as the mean of triplicate assays +/−standard error of the mean.

The next series concerns KHYG-1 NK cells. Briefly: Toxicity to KHYG-1 NK cells (trypan blue viability). Conditions: viable cells as percentage of total (% viability), 18 to 24 hours. The protocol:
Toxicity to KHYG-1 NK Cells
KHYG-1 cells were washed and resuspended in RPMI+0.1% BSA at 4×10^5 cells/ml and 50 μl of KHYG-1 cells were dispensed to each well of a 96-well V-bottom plate. Test compounds were added to KHYG-1 cells at a concentration of 20 μM and incubated at RT for 20 minutes. 100 μL of RPMI 0.1% BSA was added and the cells were incubated for 4 hours at 37° C. then washed ×3 in RPMI+0.1% BSA. Cells were then resuspended in 200 μl of complete medium and incubated for 18 to 24 hours at 37° C. Trypan blue was added to each well and viable (clear) cells counted as a percentage of total (clear+blue) cell number (% viability).

[2] abbreviates: read-out: Jurkat IC50; recombinant perforin pre-incubated 30 min with compound; 51Cr-labelled Jurkat cells, 0.1% BSA, 37° C. 4 hours.
The mark [3] stands for this setting: recombinant perforin pre-incubated 30 min with compound; 51Cr-labelled Jurkat cells, 0.1% BSA, 37° C. 4 hours; read-out: Jurkat IC50.

Sequence of recombinant perforin (P10820 whole entry): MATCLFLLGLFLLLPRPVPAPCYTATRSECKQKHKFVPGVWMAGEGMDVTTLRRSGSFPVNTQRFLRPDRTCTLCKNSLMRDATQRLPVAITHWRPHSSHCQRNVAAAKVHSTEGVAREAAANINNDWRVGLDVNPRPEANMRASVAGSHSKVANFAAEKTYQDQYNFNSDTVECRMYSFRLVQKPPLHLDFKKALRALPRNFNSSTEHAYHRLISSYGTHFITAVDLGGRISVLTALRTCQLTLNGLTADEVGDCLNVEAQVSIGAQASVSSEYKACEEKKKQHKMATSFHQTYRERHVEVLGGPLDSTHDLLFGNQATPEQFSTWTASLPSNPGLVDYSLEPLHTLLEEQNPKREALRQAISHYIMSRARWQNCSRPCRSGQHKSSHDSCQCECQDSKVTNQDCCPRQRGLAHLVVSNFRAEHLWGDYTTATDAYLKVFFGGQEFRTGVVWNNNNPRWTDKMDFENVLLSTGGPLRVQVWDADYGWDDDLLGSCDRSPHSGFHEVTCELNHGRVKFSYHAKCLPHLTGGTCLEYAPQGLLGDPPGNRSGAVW

Usually pIC50 stands for the IC50 on a negative log10 scale, so that one unit is a factor of ten. In general, inhibition refers to the share of the control response that was lost under treatment. Higher therefore signals a strong effect. With `O=C1NC(=S)N/C1=C/c1ccc(-c2ccc3c(c2)COC3=O)s1` [Cmpd 2, (E,Z)-5-((5-(1-Oxo-1,3-dihydroisobenzofuran-5-yl)thiophen-2-yl)methylene)-2-thioxoimidazolidin-4-one], the pIC50 on recombinant perforin (setting [2]) is 6.12. Further, at 20 µM the inhibition in series [1] was 52%. In the series with KHYG-1 NK cells, the “percent viable KHYG-1 cells (trypan blue) at 20 μM” value (from here on “percent viable KHYG-1 cells”) was found to be 83%.
Consider `O=C1NC(=S)N/C1=C/c1ccc(-c2ccc3c(c2)COC3=O)cn1` [Cmpd 7], for which the pIC50 at recombinant perforin (setting [3]) was 5.70.
On to `O=C1NC(=S)N/C1=C/c1ccc2cc(-c3ccc4c(c3)COC4=O)ccc2n1` [Cmpd 14, (E,Z)-5-((6-(1-Oxo-1,3-dihydroisobenzofuran-5-yl)quinolin-2-yl)methylene)-2-thioxoimidazolidin-4-one], for which the pIC50 on recombinant perforin (setting [3]) was 6.33. Also, the “Inhibition of KHYG-1 at 20 μM” value in series [1] was 56%. The “percent viable KHYG-1 cells” value in the series on KHYG-1 NK cells is 81%.
For `NC(=O)c1ccc(-c2ccc(/C=C3/NC(=S)NC3=O)s2)cc1` [Cmpd 16, (E,Z)-4-(5-((5-oxo-2-thioxoimidazolidin-4-ylidene)methyl)thiophen-2-yl)benzamide], at recombinant perforin (setting [2]), the pIC50 was 5.81. Besides, the inhibition at 20 µM in series [1] was found to be 80%. Besides, the “percent viable KHYG-1 cells” value with KHYG-1 NK cells was 52%.
The matching figures for `NC(=O)c1cccc(-c2ccc(/C=C3/NC(=S)NC3=O)s2)c1` [Cmpd 17, (E,Z)-3-(5-((5-Oxo-2-thioxoimidazolidin-4-ylidene)methyl)thiophen-2-yl)benzamide]: 6.10, 35% and 100%.
For the compound `CC(=O)OCc1ccc(-c2ccc(/C=C3/NC(=S)NC3=O)s2)cc1` [Cmpd 18, (E,Z)-4-(5-((5-Oxo-2-thioxoimidazolidin-4-ylidene)methyl)thiophen-2-yl)benzyl acetate], the pIC50 at recombinant perforin (setting [2]) is 5.52. This compound displayed an inhibition at 20 µM in series [1] of 98%. The “percent viable KHYG-1 cells” value in the series with KHYG-1 NK cells worked out at 100%.
The matching figures for `COC(=O)c1ccc(-c2ccc(/C=C3/NC(=S)NC3=O)s2)cc1` [Cmpd 19, (E,Z)-Methyl 4-(5-((5-oxo-2-thioxoimidazolidin-4-ylidene)methyl)thiophen-2-yl)benzoate]: 5.79, 30% and 95%.
The matching figures for `CC(=O)c1ccc(-c2ccc(/C=C3/NC(=S)NC3=O)s2)cc1` [Cmpd 20, (E,Z)-5-((5-(4-Acetylphenyl)thiophen-2-yl)methylene)-2-thioxoimidazolidin-4-one]: 5.78, 90% and 100%.
As to `COC(=O)c1ccc(-c2ccc(/C=C3/NC(=S)NC3=O)s2)cc1C` [Cmpd 21, (E,Z)-Methyl 2-methyl-4-(5-((5-oxo-2-thioxoimidazolidin-4-ylidene)methyl)thiophen-2-yl)benzoate], the pIC50 on recombinant perforin (setting [2]) is 5.52. For the same compound, in series [1], 20 µM produced 92% inhibition.
For the compound `O=C1NC(=S)N/C1=C/c1ccc(-c2cccc(Cl)c2)s1` [Cmpd 23, (E,Z)-5-((5-(3-Chlorophenyl)thiophen-2-yl)methylene)-2-thioxoimidazolidin-4-one], the pIC50 on recombinant perforin (setting [2]) was 5.14. At 20 µM the inhibition in series [1] was 92%. The “percent viable KHYG-1 cells” value with KHYG-1 NK cells is reported as 55%.
For `O=C1NC(=S)N/C1=C/c1ccc(-c2ccc(Cl)cc2)s1` [Cmpd 24, (E,Z)-5-((5-(4-Chlorophenyl)thiophen-2-yl)methylene)-2-thioxoimidazolidin-4-one], the pIC50 on recombinant perforin (setting [2]) is 5.28. This compound also gave an inhibition at 20 µM in series [1] of 59%. The “percent viable KHYG-1 cells” value with KHYG-1 NK cells stood at 89%.
On to `O=C1NC(=S)N/C1=C/c1ccc(-c2ccncc2)s1` [Cmpd 25, (E,Z)-5-((5-(Pyridin-4-yl)thiophen-2-yl)methylene)-2-thioxoimidazolidin-4-one], for which the pIC50 at recombinant perforin (setting [2]) is 5.00.
In the case of `CSc1ccc(-c2ccc(/C=C3/NC(=S)NC3=O)s2)cc1` [Cmpd 27], the pIC50 at recombinant perforin (setting [2]) is 5.94. For the same compound, the inhibition at 20 µM in series [1] came out at 43%. Besides, the “percent viable KHYG-1 cells” value in the series with KHYG-1 NK cells came out at 83%.
Consider `CS(=O)(=O)c1ccc(-c2ccc(/C=C3/NC(=S)NC3=O)s2)cc1` [Cmpd 28, (E,Z)-5-((5-(4-(Methylsulfonyl)phenyl)thiophen-2-yl)methylene)-2-thioxoimidazolidin-4-one], for which the pIC50 on recombinant perforin (setting [2]) is 4.86.
On the same count and under the same terms, for `O=C1NC(=S)N/C1=C/c1ccc(-c2ccc(F)cc2)s1` [Cmpd 29, (E,Z)-5-((5-(4-Fluorophenyl)thiophen-2-yl)methylene)-2-thioxoimidazolidin-4-one] the value was 5.17.
For the compound `O=C1NC(=S)N/C1=C/c1ccc(-c2ccc(F)c(F)c2)s1` [Cmpd 30, (E,Z)-5-((5-(3,4-Difluorophenyl)thiophen-2-yl)methylene)-2-thioxoimidazolidin-4-one], on recombinant perforin (setting [2]), the pIC50 is 5.34.
Take `O=C1NC(=S)N/C1=C/c1ccc(-c2cccc(F)c2)s1` [Cmpd 31, (E,Z)-5-((5-(3-Fluorophenyl)thiophen-2-yl)methylene)-2-thioxoimidazolidin-4-one]: the pIC50 on recombinant perforin (setting [2]) is 4.97.
`O=C1NC(=S)N/C1=C/c1ccc(-c2ccc(Br)cc2)s1` [Cmpd 32, (E,Z)-5-((5-(4-Bromophenyl)thiophen-2-yl)methylene)-2-thioxoimidazolidin-4-one]: at recombinant perforin (setting [2]), the pIC50 was 5.77. Further, testing at 20 µM in series [1] gave an inhibition of 66%. In the series on KHYG-1 NK cells, the “percent viable KHYG-1 cells” value stood at 83%.
In the case of `CS(=O)(=O)Nc1ccc(-c2ccc(/C=C3/NC(=S)NC3=O)s2)cc1` [Cmpd 33, (E,Z)-N-(4-(5-((5-Oxo-2-thioxoimidazolidin-4-ylidene)methyl)thiophen-2-yl)phenyl)methanesulfonamide], the pIC50 on recombinant perforin (setting [2]) was 5.11. Also, the inhibition at 20 µM in series [1] was 32%.
The matching figures for `O=C1NC(=S)N/C1=C/c1ccc(-c2ccc(C(=O)NCCO)cc2)s1` [Cmpd 42, (E,Z)-N-(2-Hydroxyethyl)-4-(5-((5-oxo-2-thioxoimidazolidin-4-ylidene)methyl)thiophen-2-yl)benzamide]: 5.44 and 42%.
The matching figures for `O=C1NC(=S)N/C1=C/c1ccc(-c2ccc(C(=O)NCCCO)cc2)s1` [Cmpd 44, (E,Z)-N-(3-Hydroxypropyl)-4-(5-((5-oxo-2-thioxoimidazolidin-4-ylidene)methyl)thiophen-2-yl)benzamide]: 5.36 and 52%.
The matching figures for `O=C1NC(=S)NC1=Cc1ccc(-c2ccc3c(c2)CNC3=O)cc1` [Cmpd 48, (E,Z)-5-(4-((5-Oxo-2-thioxoimidazolidin-4-ylidene)methyl)phenyl)isoindolin-1-one]: 5.26 and 16%.
In turn, `CN1Cc2cc(-c3ccc(/C=C4/NC(=S)NC4=O)s3)ccc2C1=O` [Cmpd 61, (E,Z)-2-Methyl-5-(5-((5-oxo-2-thioxoimidazolidin-4-ylidene)methyl)thiophen-2-yl)isoindolin-1-one] came in with an inhibition at 20 µM in series [1] of 83%. For the same compound, in the series on KHYG-1 NK cells, the “percent viable KHYG-1 cells” value amounted to 76%.
On to `O=C1NC(=S)N/C1=C/c1ccc(-c2ccc3c(c2)CN(CC(O)CO)C3=O)s1` (stereo not drawn) [Cmpd 78, (E,Z)-2-(2,3-Dihydroxypropyl)-5-(5-((5-oxo-2-thioxoimidazolidin-4-ylidene)methyl)thiophen-2-yl)isoindolin-1-one], for which the pIC50 at recombinant perforin (setting [2]) is 5.90. In series [1], this compound returned an inhibition at 20 µM of 19%.
The matching figures for `CN1CCc2ccc(-c3ccc(/C=C4\NC(=S)NC4=O)s3)cc2C1=O` [Cmpd 83, (E,Z)-2-Methyl-7-(5-((5-oxo-2-thioxoimidazolidin-4-ylidene)methyl)thiophen-2-yl)-3,4-dihydroisoquinolin-1(2H)-one]: 5.32 and 91%.
The matching figures for `CN1CCc2cc(-c3ccc(/C=C4\NC(=S)NC4=O)s3)ccc2C1=O` [Cmpd 84, (E,Z)-2-Methyl-6-(5-((5-oxo-2-thioxoimidazolidin-4-ylidene)methyl)thiophen-2-yl)-3,4-dihydroisoquinolin-1(2H)-one]: 5.63 and 72%.
